Experimental findings from ChEMBL document CHEMBL1144618, “Convenient synthesis and in vitro pharmacological activity of 2-thioanalogs of salvinorins A and B” (Bioorg Med Chem Lett, 2007) are described below.

Structures are written as SMILES.

Assay [1] addresses Kappa-type opioid receptor (Rattus norvegicus, UniProt P34975). The assay can be described thus: Displacement of [3H]U-69593 from rat cloned KOR. Background: Displacement assays read how much labelled ligand stays bound in the presence of the test substance.
Assay [2] concerns the target Kappa-type opioid receptor (Homo sapiens, UniProt P41145). In words: Activity at human kappa opioid receptor expressed in HEK293 cells as intracellular calcium mobilization. It is filed as functional, cell-based. A general note: Calcium flux is commonly read through the fluorescence of an indicator in the cells.

Kappa-type opioid receptor (Rattus norvegicus, UniProt P34975), sequence (P34975 whole entry): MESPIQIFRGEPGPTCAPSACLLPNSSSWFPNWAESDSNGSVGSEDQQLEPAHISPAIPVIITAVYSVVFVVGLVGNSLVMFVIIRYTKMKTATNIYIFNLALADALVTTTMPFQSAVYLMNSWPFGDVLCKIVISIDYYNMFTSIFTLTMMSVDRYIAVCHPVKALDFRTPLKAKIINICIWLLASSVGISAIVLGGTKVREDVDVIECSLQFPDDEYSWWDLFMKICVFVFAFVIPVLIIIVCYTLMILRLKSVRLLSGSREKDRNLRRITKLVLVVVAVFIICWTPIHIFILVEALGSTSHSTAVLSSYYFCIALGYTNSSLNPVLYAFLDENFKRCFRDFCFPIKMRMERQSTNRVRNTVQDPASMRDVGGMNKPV
Kappa-type opioid receptor (Homo sapiens, UniProt P41145), sequence (P41145 whole entry): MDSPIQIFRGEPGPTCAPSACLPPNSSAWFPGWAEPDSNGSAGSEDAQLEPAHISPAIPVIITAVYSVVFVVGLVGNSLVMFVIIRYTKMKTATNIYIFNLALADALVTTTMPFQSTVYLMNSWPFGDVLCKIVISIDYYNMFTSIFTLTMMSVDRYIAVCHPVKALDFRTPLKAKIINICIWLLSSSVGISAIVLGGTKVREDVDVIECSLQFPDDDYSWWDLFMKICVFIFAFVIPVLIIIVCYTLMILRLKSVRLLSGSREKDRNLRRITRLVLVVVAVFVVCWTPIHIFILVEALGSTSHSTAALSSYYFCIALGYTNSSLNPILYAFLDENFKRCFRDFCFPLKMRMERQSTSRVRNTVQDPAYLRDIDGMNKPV

`COC(=O)[C@@H]1C[C@@H](SC(C)=O)C(=O)[C@H]2[C@@]1(C)CC[C@H]1C(=O)O[C@H](c3ccoc3)C[C@]21C` [2-EPI-2-THIOSALVINORIN A]: the affinity in assay [1], expressed as Ki, was 0.151 µM. In assay [2], the concentration giving a half-maximal response (EC50) was 0.123 µM and the Emax came to 106%.
For `COC(=O)[C@@H]1C[C@@H](S)C(=O)[C@H]2[C@@]1(C)CC[C@H]1C(=O)O[C@H](c3ccoc3)C[C@]21C` [2-EPI-2-THIOSALVINORIN B] the same measures were 0.546 µM, over 2 µM and 71%.
`COC(=O)[C@@H]1C[C@H](S)C(=O)[C@H]2[C@@]1(C)CC[C@H]1C(=O)O[C@H](c3ccoc3)C[C@]21C` [2-THIOSALVINORIN B] displayed an inhibition constant (Ki) in assay [1] of 0.0545 µM. Besides, in assay [2], the EC50 is 0.287 µM and the maximal response (Emax) was 89%.

In general, Ki refers to a dissociation constant, usually derived from enzyme kinetics or from competition with a known ligand. Read a high Ki as weaker binding. As usually defined, the EC50 is the concentration that produces a half-maximal response. Usually Emax stands for the greatest response seen or fitted, relative to the assay's reference.
